Target: T1, DPP-IV (Homo sapiens, UniProt P27487)
T1 construct: purchased R & D systems
Experiment: In vitro DPP-IV stability (incubation with DPP-IV, LC-MS of non-degraded peptide)
Type: in vitro ADME
Conditions: 10 μM peptide, DPP-IV 2 μg/ml, 37° C., samples up to 180 min
Experimental: The peptides are incubated in vitro in buffer with DPP-IV, samples are taken at regular intervals, the DPP-IV enzyme is inactivated to stop further degradation, and the amount of non-degraded peptide in the samples is determined using LC-MS.
Buffer A is a HEPES buffer (Gibco by Life Science, NY, USA) to which 0.005% (v/v) Tween20® Sigma-Aldrich, USA) and 0.001% (w/v) BSA (Sigma-Aldrich, USA) has been added and pH was adjusted to 7.4.
LC-MS was performed on a setup consisting of Waters Acquity UPLC system and Maxis 4G from Bruker Daltonics. […] Gradient: Linear 5%-70% mobile phase B during 8 min at 0.3 ml/min. MS was conducted in positive ionisation mode by electrospray ionisation from m/z ionisation mode and scan from m/z 300-1800.
The reactions were terminated by addition of 6 volumes of ethanol containing 1% (v/v) TFA (Biosolve BV, The Netherlands) and internal standard. The samples were analysed by LC-MS for the respective non-degraded peptide. Data was plotted according to 1st order kinetics (by GraphPad Prism) and the half-lives (T1/2) were calculated by the software and reported in minutes.

T1 sequence (P27487 whole entry, species assumed): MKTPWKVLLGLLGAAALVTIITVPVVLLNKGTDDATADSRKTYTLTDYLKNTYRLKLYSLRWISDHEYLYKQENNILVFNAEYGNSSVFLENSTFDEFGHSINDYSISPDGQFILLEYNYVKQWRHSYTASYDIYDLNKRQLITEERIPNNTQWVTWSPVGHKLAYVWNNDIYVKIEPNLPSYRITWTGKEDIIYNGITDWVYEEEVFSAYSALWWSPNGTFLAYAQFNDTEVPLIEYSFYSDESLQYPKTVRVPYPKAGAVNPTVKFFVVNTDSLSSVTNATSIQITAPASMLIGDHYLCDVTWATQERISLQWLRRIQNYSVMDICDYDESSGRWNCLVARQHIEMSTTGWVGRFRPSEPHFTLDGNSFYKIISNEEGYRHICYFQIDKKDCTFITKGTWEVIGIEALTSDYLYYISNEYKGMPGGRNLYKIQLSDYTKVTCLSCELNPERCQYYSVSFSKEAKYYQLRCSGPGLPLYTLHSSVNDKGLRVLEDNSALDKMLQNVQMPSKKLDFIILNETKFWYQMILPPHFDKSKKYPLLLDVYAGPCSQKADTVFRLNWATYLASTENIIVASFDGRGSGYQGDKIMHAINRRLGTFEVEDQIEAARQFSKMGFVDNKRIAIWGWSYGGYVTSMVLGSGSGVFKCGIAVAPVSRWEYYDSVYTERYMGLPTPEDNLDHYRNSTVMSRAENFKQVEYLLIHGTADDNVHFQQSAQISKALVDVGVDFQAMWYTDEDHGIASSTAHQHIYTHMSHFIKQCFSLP

- degradation by DPP-IV in vitro (in words): no degradation at all was observed
SMILES: CC[C@H](C)[C@H](NC(=O)[C@H](Cc1ccccc1)NC(=O)[C@H](CCC(=O)O)NC(=O)[C@H](CCCCN)NC(=O)[C@H](C)NC(=O)[C@H](C)NC(=O)[C@H](CCC(N)=O)NC(=O)CNC(=O)[C@H](CCC(=O)O)NC(=O)[C@H](CC(C)C)NC(=O)[C@H](Cc1ccc(O)cc1)NC(=O)[C@H](CO)NC(=O)[C@H](CO)NC(=O)[C@@H](NC(=O)[C@H](CC(=O)O)NC(=O)[C@H](CO)NC(=O)[C@@H](NC(=O)[C@H](Cc1ccccc1)NC(=O)[C@@H](NC(=O)CNC(=O)[C@H](CCC(=O)O)NC(=O)[C@H](Cc1c[nH]c2ccccc12)NC(=O)[C@@H](N)Cc1c[nH]cn1)[C@@H](C)O)[C@@H](C)O)C(C)C)C(=O)N[C@@H](C)C(=O)N[C@@H](Cc1c[nH]c2ccccc12)C(=O)N[C@@H](CC(C)C)C(=O)N[C@H](C(=O)N[C@@H](CCCCN)C(=O)NCC(=O)N[C@@H](CCCNC(=N)N)C(=O)NCC(=O)O)C(C)C [Example D, [Trp8]-GLP-1-(7-37)-Peptide]

From patent US10946074B2, “GLP-1 derivatives and uses thereof” (Novo Nordisk A/S, priority 2016, dated 2021)
